Test results published in ChEMBL document CHEMBL1149861, “Inhibition of 15-lipoxygenase-catalysed oxygenation of arachidonic acid by substituted benzoic acids” (Bioorg Med Chem, 2008).

Test system: Glycine max
Test: Inhibition of soybean 15-lipoxygenase

Structure (SMILES) | inhibition
O=C(O)/C=C/c1ccc(O)c(O)c1 | 36.2%
O=C(O)c1ccccc1O | 48.4%
O=C(O)c1cc(O)cc(O)c1 | 58.1%
O=C(O)c1ccc(O)cc1O | 47.7%
O=C(O)c1ccccc1 | 51.6%
O=C(O)c1cccc(O)c1O | 47%
O=C(O)c1ccc(O)cc1 | 47.6%
O=C(O)c1cccc(O)c1 | 46%
O=C(O)c1ccc(O)c(O)c1 | 73.3%
O=C(O)c1cc(O)ccc1O | 49.9%
COc1cc(C(=O)O)ccc1O | 45.4%
O=C(O)c1cc(O)c(O)c(O)c1 | 60.5%
O=C(O)c1c(O)cccc1O | 21.2%
